Source: US20250206779A1, “ANGIOTENSIN-(1-9) ANALOGUE BASED ON D AMINO ACIDS, PHARMACEUTICAL COMPOSITIONS AND USES THEREOF” (UNIVERSIDAD DE CHILE, priority 2021, published 2025)
Where a SMILES comes first, the peptide text is derived from it. [ ]: non-standard residue; d: D form.

Legend:
cardiomyocytes = experiment: Norepinephrine-induced cardiomyocyte hypertrophy, cell area and perimeter; type: cell-based, rat; details: 100 μM peptide, norepinephrine 10 μM
Description: Cardiac myocytes were isolated from neonatal Sprague-Dawley rat ventricles. Cardiac myocytes were plated at 70% final density in gelatin-coated wells (12-well plates) or in 60-mm Petri dishes and maintained at 37° C. in a humidified atmosphere of 5% CO2/95% air for 24 h in Dulbecco's Modified Eagle's medium [(DMEM)/M199](4:1) containing 10% fetal bovine serum and 5% fetal calf serum. Serum was withdrawn 24 h before preincubation with 1, 10 or 100 μM retro-inverse angiotensin-(1-9) for 1 h; then, 10 μM norepinephrine (Sigma, St Louis, Missouri, USA) were added and the cultures were incubated for 24 h. […] After centrifugation at 12,000 r.p.m. for 15 min at 4° C., the supernatat was recovered; total protein content was determined by using Bradford (BioRad protein assay, BioRad, Hercules, CA, USA). […]
Cardiomyocyte hypertrophy is characterized by an increase of cell area and perimeter. Cell area and perimeter were analyzed as follows. […] Cell area and perimeter were determined in cells fixed with 4% paraformaldehyde for 10 min and permeabilized with 0.2% Triton X100 for 6 min. […] Cell staining was evaluated by epifluorescence microscopy. At least 100 cells from randomly selected fields were analyzed using Image J software (NIH). […]

[1] = test system: cardiac myocytes isolated from neonatal Sprague-Dawley rat ventricles; experiment: Norepinephrine-induced cardiomyocyte hypertrophy, western blot of β-MHC and ANP; type: cell-based; details: 1, 10 or 100 μM peptide, 10 μM norepinephrine
Description: Cardiac myocytes were isolated from neonatal Sprague-Dawley rat ventricles. Cardiac myocytes were plated at 70% final density in gelatin-coated wells (12-well plates) or in 60-mm Petri dishes and maintained at 37° C. in a humidified atmosphere of 5% CO2/95% air for 24 h in Dulbecco's Modified Eagle's medium [(DMEM)/M199](4:1) containing 10% fetal bovine serum and 5% fetal calf serum. Serum was withdrawn 24 h before preincubation with 1, 10 or 100 μM retro-inverse angiotensin-(1-9) for 1 h; then, 10 μM norepinephrine (Sigma, St Louis, Missouri, USA) were added and the cultures were incubated for 24 h. Then cells were washed with PBS at 4° C. and then cells were lysed with 50 μL of RIPA lysis buffer (Tris-HCl 10 mM pH 7.4, EDTA 5 mM, NaCl 50 mM, deoxycholic acid 1%, Triton X-100 1% v/v) supplemented with phosphatase and protease inhibitors (Roche). After centrifugation at 12,000 r.p.m. for 15 min at 4° C., the supernatat was recovered; total protein content was determined by using Bradford (BioRad protein assay, BioRad, Hercules, CA, USA). Proteins were denatured in SDS-PAGE 4× buffer and resolved in 12% PAGE-SDS. After electrotransference, beta-myosin heavy chain (β-MHC) and atrial natriuretic peptide (ANP) were used as hypertrophic markers. β-tubulin was used as loading control. As expected, norepinephrine 10 μM for […], a cardiomyocyte hypertrophy inducer, triggered β-MHC and ANP increase (FIG. 3).

[2] = test system: spontaneously hypertensive rats (SHR); experiment: Cardiac inflammation by monocyte infiltration in SHR, ED-1 immunohistochemistry; type: in vivo, rat; details: SHR, 1,200 ng/kg/min, 14 days
Description: (§1) Experimental animal model. All procedures were performed in accordance with the Guide for the Care and Use of Laboratory Animals published by the U.S. National Institutes of Health (NIH Publication 85 23, 1985) and approved by our Institutional Bioethics Committee. The animals were housed under the continuous professional monitoring of the Medical Veterinary staff in the animal facility of the Pontificia Universidad Católica de Chile, under the following conditions: 12-h light-dark cycle; 21° C. ambient temperature; 50% humidity; adequate ventilation; noise-free environment; and food and water ad libitum. Male spontaneously hypertensive rats (SHR, age 12 weeks) and normotensive Wistar Kyoto rats (WKY, 12 weeks age) were used. […] Systolic blood pressure (SBP), diastolic blood pressure (DBP) and body weight (BW) were measured at the end of the treatment period and the animals were then sacrificed.
Evaluation of cardiac inflammation by monocyte infiltration. Monocyte infiltration was assessed as a marker of cardiac inflammation. Monocytes were detected by immunohistochemistry using ED-1. […] In hypertense SHR increased ED-1 positive cells was detected in the hearts, indicating the presence of monocyte infiltration, a marker of cardiac inflammation.

[3] = test system: spontaneously hypertensive rats (SHR); experiment: Blood pressure in spontaneously hypertensive rats; type: in vivo, rat; details: SHR, 300, 600, 1200 ng/kg/min, osmotic minipumps, 14 days
Description: as §1
Hemodynamic evaluations. SBP and DBP were measured twice per week by a researcher blinded to study group, using a CODA 2 noninvasive pressure device with volume-pressure recording (Kent Scientific Corporation, Torrington, CT, USA). […]

For `CC[C@@H](C)[C@@H](NC(=O)[C@@H](Cc1c[nH]cn1)NC(=O)[C@H]1CCCN1C(=O)[C@@H](Cc1ccccc1)NC(=O)[C@H](N)Cc1c[nH]cn1)C(=O)N[C@H](Cc1ccc(O)cc1)C(=O)N[C@@H](C(=O)N[C@H](CCCNC(=N)N)C(=O)N[C@H](CC(=O)O)C(=O)O)C(C)C` [retro-inverse angiotensin-(1-9), NH2-^DH^DF^DP^DH^DI^DY^DV^DR^DD-COOH] (H-[dH][dF][dP][dH][dI][dY][dV][dR][dD]-OH), the “increase of cell area induced by norepinephrine” value (cardiomyocytes) was “inhibited, in a dose response manner”, the “increase of cell perimeter induced by norepinephrine” value (cardiomyocytes) was “inhibited, in a dose response manner” and the “increase of ANP induced by norepinephrine” value [1] was “inhibited, in a dose response manner”. The “increase of β-MHC induced by norepinephrine” value [1] was “inhibited, in a dose response manner”, the “accumulation of ED-1 positive cells in cardiac tissue” value [2] was “completely revert” and the “diastolic blood pressure (DBP)” value [3] was “reduced SBP and DBP in a dose-dependent manner”. For the same compound, the “systolic blood pressure (SBP)” value [3] was “reduced SBP and DBP in a dose-dependent manner”.
